In the data set the test system is human three-dimensional cultured epidermis model. Put plainly: Skin irritation of fatty acid alkali metal salts, OECD TG439 (Experimental Example 3). It counts as cell-based. Conditions: 0.1 M fatty acid aqueous solution, 25 μL, 15 minutes exposure, N=3; ≤50% viability irritating. As to the method:
The skin irritation of alkali metal salts of various fatty acids (potassium laurate, potassium myristate, potassium palmitate, and potassium oleate) was evaluated by the following method based on OECD Test Guideline TG439. […]

Structures are written as SMILES.

On to `CCCCCCCCCCCC(=O)[O-].[K+]` [lauric acid salt, potassium laurate], for which the “Skin irritation determination from cell viability (FIG. 3)” value is recorded as “irritating”.

Source of the values: patent US20250290014A1, “DETERGENT COMPOSITION” (Saraya Co., Ltd., priority 2022, published 2025).
